Test results reported in patent US9353096B2, “Substituted phenylcarbamate compounds” (Hoffmann-La Roche Inc., priority 2012, dated 2016).
Where a name gives a salt, the structure may show the parent alone.

Target: hTRPA1 (Homo sapiens, UniProt O75762)
Test: Dose response calcium flux (FLIPR) assay, ChanTest hTRPA1-CHO stably transfected cell line, cinnamaldehyde agonist
Assay type: cell-based
Details: CHO-K1 Tet-On hTRPA1 cells, 100 uM cinnamaldehyde agonist, 30 min preincubation
Experimental: Dose Response Assay:ChanTest hTRPA1-CHO Stably Transfected Cell Line
CHO-K1 Tet-On_HOMSA_TRPA1_Clone_20
Growth Media for CHO-K1 Tet-On_HOMSA_TRPA1_Clone_20 • Ham's F-12 with 10% tetracycline-free FBS • 1× penicillin-streptomycin • 1× glutamax • 0.01 mg/ml Blasticidin • 0.40 mg/ml Zeocin • The cell line doubling rate was ˜15 h. […] Experiments were run at 24 h post induction.
Plating Conditions CHOK1/TRPA1 Cells: • Harvested cells with 0.025% trypsin/EDTA. • Resuspended cells in growth media without selection antibiotics. • Measured cell density and diluted to 2.4×10^5 cells/ml in media containing 1 ug/ml Doxycycline Plate 25 ul/well into 384 well black/clear tissue culture-treated plates. • Incubated overnight at 37° C.
Replacement Buffer: Hank's Balanced Salt Solution, 20 mM HEPES along with 0.005% BSA and 2× Probenecid
Dye Loading Buffer: Cal-3 NW Calcium dye was prepared by dissolving the contents of one vial with […] Hank's Balanced Salt Solution containing 20 mM HEPES.
AP-18, stock 10 mM, prepare 3.5× compound dilution in a Compound Buffer (HBSS/20 mM HEPES/0.005% BSA)—final concentration 10 uM.
Preparation of Cinnamaldehyde (Agonist Addition): • FW=132.16 • Specific gravity=1.046 gm/cc • 1.32 gm/1.046 gm/cc=1.26 ml of stock • Add 1.74 ml DMSO=3.3 M stock • Working solution 4.5× (final 100 uM in Compound Buffer: HBSS/20 mM HEPES/0.005% BSA)
Compounds dilutions were prepared from 5 or 10 mM stock (100% DMSO): • Adjustments of volumes and concentrations were made at time of titration to reflect desired final assay concentrations. • Compounds were tested at either 20 μM three folds dilution 11 steps out or 30 μM two folds dilution 11 steps out. • 3 μl of diluted compound were transferred into Weidmann 384-well plate in duplicates side-by-side. • Compound plates were resuspended with 100 ul of HBSS/20 mM HEPES/0.005% BSA buffer (Compound Buffer): • column 1A-H: buffer/DMSO (bk) • column 2A-H: AP-18 (control antagonist for CHOK1 TRPA1 cells) • column 1I-P: ATP (control for CHOK1 teton cells) • column 2I-P: 2APB (control antagonist for CHOK1/TRPM8 cells).
Growth media was removed from the cell plates (20 ul) and 20 μl of the Replacement Buffer was added followed by addition of 25 μl of diluted dye. All three steps were performed using a Plate Washer BioTek 407. The plates were then incubated for 30′ at RT.
After incubation, both the cell and compound plates were brought to the FLIPR and 20 μl of the diluted compounds/antagonist/bk were transferred to the cell plates by the FLIPR. Plates were then incubated for 30′ at room temperature. After 30′ incubation, plates were returned to the FLIPR and 20 μl of 4.5× Cinnamaldehyde was added to the cell plates. During the compound addition as well as agonist addition, fluorescence readings were taken simultaneously from all 384 wells of the cell plate every 1.5 seconds. Five readings were taken to establish a stable baseline, then 20 μl of sample was rapidly (30 ul/sec) and simultaneously added to each well of the cell plate. The fluorescence was continuously monitored before, during and after sample/agonist addition for a total elapsed time of 100 seconds (compound addition) and 120 seconds (agonist addition). Responses (increase in peak fluorescence) in each well following agonist addition was determined. The initial fluorescence reading from each well, prior to ligand stimulation, was used a zero baseline value for the data from that well.

hTRPA1, sequence (O75762 whole entry): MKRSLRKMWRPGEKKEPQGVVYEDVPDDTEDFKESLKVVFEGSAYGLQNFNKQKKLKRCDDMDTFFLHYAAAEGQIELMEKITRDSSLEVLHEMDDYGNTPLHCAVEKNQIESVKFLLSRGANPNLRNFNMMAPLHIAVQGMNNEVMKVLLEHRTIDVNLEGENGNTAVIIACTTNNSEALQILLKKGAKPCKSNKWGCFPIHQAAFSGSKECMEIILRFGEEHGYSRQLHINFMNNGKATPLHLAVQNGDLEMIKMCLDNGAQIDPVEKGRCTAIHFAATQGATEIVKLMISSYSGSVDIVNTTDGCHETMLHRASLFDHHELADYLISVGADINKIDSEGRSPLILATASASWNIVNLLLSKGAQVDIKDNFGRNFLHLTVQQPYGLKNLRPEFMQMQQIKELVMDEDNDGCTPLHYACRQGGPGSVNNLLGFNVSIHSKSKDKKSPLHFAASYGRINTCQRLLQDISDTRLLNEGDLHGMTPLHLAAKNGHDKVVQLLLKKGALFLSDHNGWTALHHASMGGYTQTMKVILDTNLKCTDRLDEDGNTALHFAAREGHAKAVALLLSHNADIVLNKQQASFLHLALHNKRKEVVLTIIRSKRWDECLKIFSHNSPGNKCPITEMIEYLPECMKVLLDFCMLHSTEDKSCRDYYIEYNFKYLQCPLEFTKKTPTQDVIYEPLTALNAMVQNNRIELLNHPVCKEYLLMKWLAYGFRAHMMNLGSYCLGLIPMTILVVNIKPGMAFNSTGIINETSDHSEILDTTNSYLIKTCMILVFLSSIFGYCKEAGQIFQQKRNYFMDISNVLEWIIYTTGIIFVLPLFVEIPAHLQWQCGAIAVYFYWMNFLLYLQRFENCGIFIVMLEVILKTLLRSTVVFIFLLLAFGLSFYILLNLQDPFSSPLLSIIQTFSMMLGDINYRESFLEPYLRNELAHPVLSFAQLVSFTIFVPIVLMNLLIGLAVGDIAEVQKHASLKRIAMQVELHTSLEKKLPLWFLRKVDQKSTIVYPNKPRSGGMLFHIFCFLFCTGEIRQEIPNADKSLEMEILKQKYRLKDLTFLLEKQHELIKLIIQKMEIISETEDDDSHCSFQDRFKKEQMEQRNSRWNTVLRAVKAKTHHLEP

IC50 [nM] | Compound
64.3 | O=C(Nc1ccc(Cl)c(F)c1)O[C@@H](CN1CCO[C@H](c2ccc(C(F)(F)F)nc2)C1)C(F)(F)F [Example 22, (4-Chloro-3-fluorophenyl)-carbamic acid (S)-2,2,2-trifluoro-1-[(R)-2-(6-trifluoromethyl-pyridin-3-yl)-morpholin-4-ylmethyl]-ethyl ester]
71.1 | O=C(Nc1ccc(Cl)c(F)c1)O[C@@H](CN1CCO[C@H](c2ccnc(C(F)(F)F)n2)C1)C(F)(F)F [Example 24, (4-Chloro-3-fluorophenyl)-carbamic acid (S)-2,2,2-trifluoro-1-[(S)-2-(2-trifluoromethylpyrimidin-4-yl)-morpholin-4-ylmethyl]-ethyl ester hydrochloride]
103 | CC(C)c1nccc([C@@H]2CN(C[C@H](OC(=O)Nc3ccc(Cl)c(F)c3)C(F)(F)F)CCO2)n1 [Example 25, (4-Chloro-3-fluorophenyl)-carbamic acid (S)-2,2,2-trifluoro-1-[(S)-2-(2-isopropylpyrimidin-4-yl)-morpholin-4-ylmethyl]-ethyl ester hydrochloride]
2620 | CN1CCN(C[C@H](OC(=O)Nc2ccc(Cl)cc2)C(F)(F)F)CC1c1ccccc1 (stereo partly drawn) [Example 27, (4-Chlorophenyl)-carbamic acid (S)-2,2,2-trifluoro-1-(4-methyl-3-phenylpiperazin-1-ylmethyl)-ethyl ester hydrochloride]
4530 | CC(=O)N1CCN(C[C@H](OC(=O)Nc2ccc(Cl)cc2)C(F)(F)F)CC1c1ccccc1 (stereo partly drawn) [Example 28, (4-Chlorophenyl)-carbamic acid (S)-1-(4-acetyl-3-phenylpiperazin-1-ylmethyl)-2,2,2-trifluoroethyl ester hydrochloride]
7.64 | O=C(Nc1ccc(Cl)cc1)O[C@@H](CN1CCO[C@H](c2ccc(C(F)(F)F)cc2)C1)C(F)(F)F [Example 29, (4-Chlorophenyl)-carbamic acid (S)-2,2,2-trifluoro-1-[(R)-2-(4-trifluoromethylphenyl)-morpholin-4-ylmethyl]-ethyl ester hydrochloride]
34.6 | O=C(Nc1ccc(Cl)c(F)c1)O[C@@H](CN1CCO[C@H](c2ccc(C(F)(F)F)cc2)C1)C(F)(F)F [Example 31, (4-Chloro-3-fluorophenyl)carbamic acid (S)-2,2,2-trifluoro-1-[(R)-2-(4-trifluoromethylphenyl)-morpholin-4-ylmethyl]-ethyl ester hydrochloride]
451 | O=C(Nc1ccc(Cl)c(F)c1)O[C@@H](CN1CCO[C@@H](c2ccc(C(F)(F)F)cc2)C1)C(F)(F)F [Example 32, (4-Chloro-3-fluorophenyl)-carbamic acid (S)-2,2,2-trifluoro-1-[(S)-2-(4-trifluoromethylphenyl)-morpholin-4-ylmethyl]-ethyl ester hydrochloride]
1630 | Cc1ccc(NC(=O)O[C@@H](CN2CCOC(c3ccc(C(F)(F)F)cc3)C2)C(F)(F)F)cc1Cl (stereo partly drawn) [Example 33, (3-Chloro-4-methylphenyl)-carbamic acid (S)-2,2,2-trifluoro-1-[2-(4-trifluoromethylphenyl)-morpholin-4-ylmethyl]-ethyl ester hydrochloride]
37.6 | O=C(Nc1ccc(Cl)c(F)c1)O[C@@H](CN1CCO[C@H](c2ccc(F)c(F)c2)C1)C(F)(F)F [Example 34, (4-Chloro-3-fluorophenyl)-carbamic acid (S)-1-[(R)-2-(3,4-difluorophenyl)-morpholin-4-ylmethyl]-2,2,2-trifluoroethyl ester hydrochloride]
92.2 | O=C(Nc1ccc(Cl)c(F)c1)O[C@@H](CN1CCO[C@H](c2ccc(F)cc2)C1)C(F)(F)F [Example 36, (4-Chloro-3-fluorophenyl)carbamic acid (S)-1-[(R)-2-(4-fluorophenyl)-morpholin-4-ylmethyl]-2,2,2-trifluoroethyl ester hydrochloride]
458 | Cc1ccc(NC(=O)O[C@@H](CN2CCOC(c3ccc(F)c(F)c3)C2)C(F)(F)F)cc1 (stereo partly drawn) [Example 37, p-Tolylcarbamic acid (S)-1-[2-(3,4-difluorophenyl)-morpholin-4-ylmethyl]-2,2,2-trifluoroethyl ester hydrochloride]
78 | O=C(Nc1ccc(Cl)nc1)O[C@@H](CN1CCOC(c2cccc(C(F)(F)F)c2)C1)C(F)(F)F (stereo partly drawn) [Example 38, (6-Chloropyridin-3-yl)carbamic acid (S)-2,2,2-trifluoro-1-[2-3-trifluoromethylphenyl]-morpholin-4-ylmethyl]-ethyl ester hydrochloride]
73.8 | O=C(C[C@@H](CN1CCO[C@H](c2cccc(C(F)(F)F)c2)C1)C(F)(F)F)Nc1ccc(Cl)c(F)c1 [Example 39, (S)—N-(4-chloro-3-fluorophenyl)-4,4,4-trifluoro-3-[(R)-2-(3-trifluoromethylphenyl)-morpholin-4-ylmethyl]-butyramide]
3060 | O=C(C[C@@H](CN1CCO[C@@H](c2cccc(C(F)(F)F)c2)C1)C(F)(F)F)Nc1ccc(Cl)c(F)c1 [Example 40, (S)—N-(4-chloro-3-fluorophenyl)-4,4,4-trifluoro-3-[(S)-2-(3-trifluoromethylphenyl)-morpholin-4-ylmethyl]-butyramide]
2140 | O=C(Nc1ccc(Cl)cc1)OC(CN1CCOCC1)C(F)(F)F (centres unmarked) [Example 41, (4-Chlorophenyl)-carbamic acid 2,2,2-trifluoro-1-morpholin-4-ylmethyl-ethyl ester]
83.4 | O=C(Nc1ccc(Cl)cc1)O[C@@H](CN1CCOC(c2ccc(F)cc2)C1)C(F)(F)F (stereo partly drawn) [Example 42, (4-Chlorophenyl)carbamic acid (S)-2,2,2-trifluoro-1-[2-(4-fluorophenyl)-morpholin-4-ylmethyl]-ethyl ester hydrochloride]
17.8 | O=C(Nc1ccc(Cl)cc1)O[C@@H](CN1CCOC(c2cccc(Cl)c2)C1)C(F)(F)F (stereo partly drawn) [Example 43, (4-Chlorophenyl)-carbamic acid (S)-2,2,2-trifluoro-1-[2-(3-chlorophenyl)-morpholin-4-ylmethyl]-ethyl ester hydrochloride]
10.3 | O=C(Nc1ccc(Cl)cc1)O[C@@H](CN1CCOC(c2cc(Cl)cc(Cl)c2)C1)C(F)(F)F (stereo partly drawn) [Example 44, (4-Chlorophenyl)-carbamic acid (S)-2,2,2-trifluoro-1-[2-(3,5-dichlorophenyl)-morpholin-4-ylmethyl]-ethyl ester hydrochloride]
8.09 | O=C(Nc1ccc(Cl)cc1)O[C@@H](CN1CCO[C@H](c2cc(Cl)cc(Cl)c2)C1)C(F)(F)F [Example 45, (4-Chlorophenyl)carbamic acid (S)-1-[(R)-2-(3,5-dichlorophenyl)-morpholin-4-ylmethyl]-2,2,2-trifluoroethyl ester hydrochloride]
16.9 | O=C(Nc1ccc(Cl)c(F)c1)O[C@@H](CN1CCO[C@H](c2cc(Cl)cc(Cl)c2)C1)C(F)(F)F [Example 46, (4-Chloro-3-fluorophenyl)carbamic acid (S)-1-[(R)-2-(3,5-dichlorophenyl)-morpholin-4-ylmethyl]-2,2,2-trifluoroethyl ester hydrochloride]
130 | O=C(Nc1ccc(Cl)cc1)O[C@@H](CN1CCOC(c2cccc(F)c2)C1)C(F)(F)F (stereo partly drawn) [Example 47, (4-Chlorophenyl)-carbamic acid (S)-2,2,2-trifluoro-1-[2-(3-fluorophenyl)-morpholin-4-ylmethyl]-ethyl ester hydrochloride]
3560 | O=C(Nc1ccc(Cl)cc1)O[C@@H](CN1CCS(=O)(=O)CC1)C(F)(F)F [Example 48, (4-Chlorophenyl)-carbamic acid (S)-1-(1,1-dioxo-1λ^6-thiomorpholin-4-ylmethyl)-2,2,2-trifluoroethyl ester hydrochloride]
